Molecules are shown by their SMILES. Structures can show the parent of a compound that is named as a salt.

The test system of the first assay is M21 human melanoma cells. Kind of assay: M21 melanoma cell adhesion assay (αvβ3-dependent adhesion to human fibrinogen-coated plates). The following applies: Homo sapiens, M21; read-out: M21 Melanoma Cells IC50. In kind it is cell-based. On the procedure: M21 MELANOMA CELL ADHESION ASSASY
This assay involves an αvβ3-dependent adhesion of M21 human melanoma cells to human fibrinogen-coated plastic tissue culture dishes.
Fibrinogen was purified from human plasma. Fibronectin and plasminogen were eliminated from the preparation by passing the sample over gelatin-sepharose 4B and lysine-sepharose 4B resins, respectively. The fibrinogen is diluted to 10 μg/mL in coating buffer ([…] Tris-HCl, 150 mM NaCl, pH 7.4). 100 μL of diluted fibrinogen is added to each well of a 96-well Immulon 2 microtiter plate (Dynatech; Chantilly, Va.) and allowed to coat overnight at 4° C. Plates are blocked with 1% BSA (Miles/Pentex; Kankakee, Ill.) in adhesion buffer (Hank's balanced salt solution without Ca^++ or Mg^++ [HBSS−−], 50 mM Hepes, 1 mg/mL BSA, pH 7.4) for 1 hour at 37° C.
M21 human melanoma cells were provided by Dr. J. Smith, La Jolla Cancer Research Institute. M21 cells are harvested from tissue culture flasks by washing with HBSS−− and adding cell dissociation solution (Sigma) and incubating for 5 minutes at 37° C. Harvested cells are washed 3 times with adhesion assay buffer containing 200 μM Mn^++. Cells are counted and suspended to a density of 2×10^6/mL in adhesion assay buffer containing 200 μM Mn^++. M21 cells are pre-incubated with antagonists of αvβ3 for 30 minutes at room temperature. Following the pre-incubation, the solutions containing a mixture of cells and antagonists are added to each well of the microtiter plate and allowed to bind for 30 minutes at 37° C.
Following adhesion, plates are gently washed 3 times with 200 μL of wash buffer (50 mM Tris-HCl, 150 mM NaCl, pH 7.4) using large bore pipet tips. Plates are briefly blotted dry and 100 μL of cell lysis buffer (50 mM sodium acetate, pH 5.0, 0.5% Triton X-100, 0.3 mg/mL p-nitrophenyl phosphate [Sigma] is added to each well. Plates are incubated for 60 minutes at 37° C. and 50 μL of 1N NaOH is added to stop the reaction. The absorbance of the wells at […] is read using an automatic plate reader.
A word on the IC50: it is the concentration that inhibits the measured activity by half. Turning to `N=C(N)Nc1cccc(C(=O)NCC(=O)NC(CCS(=O)(=O)c2ccccc2C(=O)O)CC(=O)O)c1` (racemic) [60(C), (±)2-[3-[[2-[[[3-[(aminoiminomethyl)amino]phenyl]carbonyl]amino]acetyl]amino]-4-carboxybutyl]sulfonyl]benzoic acid, trifluoroacetate], the concentration for half-maximal inhibition (IC50) came to 0.74 nM. Same read-out and setting: the figure for `N=C(N)Nc1cccc(C(=O)NCC(=O)NC(CC(=O)O)c2ccccc2)c1` (racemic) [Example 4, (±)β-[[2-[[[3-[(aminoiminomethyl)amino]phenyl]carbonyl]amino]acetyl]amino]benzene-propanoic acid, trifluoroacetate salt] is 3.3 nM. Still for that read-out and setting: the figure for `N=C(N)Nc1cc(C(=O)NCC(=O)NC(CC(=O)O)c2cccnc2)c2ccccc2c1` (racemic) [Example 8, (±)β-[[2-[[[3-[(aminoiminomethyl)amino]naphthalen-1-yl]carbonyl]amino]acetyl]amino]pyridine-3-propanoic acid, bis(trifluoroacetate)salt] is 0.28 nM; for `O=C(O)CC(NC(=O)CNC(=O)c1cccc(NC2=NCCN2)c1)c1cccnc1` (racemic) [Example 10, (±)β-[[2-[[[3-[(4,5-dihydro-1H-imidazol-2-yl)amino]phenyl]carbonyl]amino]acetyl]amino]pyridine-3-propanoic acid, bis(trifluoroacetate)salt] it is 1.82 nM; for `O=C(O)CC(NC(=O)CNC(=O)c1cccc(NC2=NCCCCC2)c1)c1cccnc1` (racemic) [Example 12, (±)β-[[2-[[[3-[(3,4,5,6-tetrahydro-2H-azepin-7-yl)amino]phenyl]carbonyl]amino]acetyl]amino]pyridine-3-propanoic acid, bis(trifluoroacetate)salt] it is 9.32 nM. The same measure, in the same setting: the figure for `O=C(O)CC(NC(=O)CNC(=O)c1cccc(NC2=NCCCCC2)c1)c1ccc2c(c1)OCO2` (racemic) [Example 14, (±)β-[[2-[[[3-[(3,4,5,6-tetrahydro-2H-azepin-7-yl)amino]phenyl]carbonyl]amino]acetyl]amino]-1,3-benzodioxole-5-propanoic acid, TFA salt] is 5.42 nM. For the compound `O=C(O)CC(NC(=O)CNC(=O)c1cccc(NC2=NCCCCC2)c1)c1ccccc1` (racemic) [Example 15, (±)β-[[2-[[[3-[(3,4,5,6-tetrahydro-2H-azepin-7-yl)amino]phenyl]carbonyl]amino]acetyl]amino]benzenepropanoic acid, trifluoroacetate salt], the IC50 was determined as 202 nM. Same read-out and setting: the figure for `N=C(NCc1ccccc1)Nc1cccc(C(=O)NCC(=O)NC(CC(=O)O)c2cccnc2)c1` (racemic) [Example 24, (±)β-[[2-[[[3-[[imino[(phenylmethyl)amino]methyl]amino]phenyl]carbonyl]amino]acetyl]amino]pyridine-3-propanoic acid, bis(trifluoroacetate)salt] is 12.7 nM.

For `N=C(N)Nc1cccc(C(=O)NCC(=O)NC(CC(=O)O)c2cc(C(F)(F)F)cc(C(F)(F)F)c2)c1` (racemic) [Example 36, (±)β-[[2-[[[3-[(aminoiminomethyl)amino]phenyl]carbonyl]amino]acetyl]amino]-3,5-bis(trifluoromethyl)benzenepropanoic acid, trifluoroacetate salt], the IC50 stood at 143 nM. Take `O=C(O)CC(NC(=O)CNC(=O)c1cccc(NC(=O)NCc2ccccc2)c1)c1cccnc1` (racemic) [Example 47, (±)β-[[2-[[[3-[[[(phenylmethyl)amino]carbonyl]amino]phenyl]carbonyl]amino]acetyl]amino]pyridine-3-propanoic acid, hydrochloride salt]: the half-inhibitory concentration (IC50) is 1.18 nM. The same measure, in the same setting: the figure for `N=C(N)Nc1cccc(C(=O)NCC(=O)NC(CC(=O)O)c2ccoc2)c1` (racemic) [Example 52, (±)β-[[2-[[[3-[(aminoiminomethyl)amino]phenyl]carbonyl]amino]acetyl]amino]furan-3-propanoic acid, trifluoroacetate salt] is 11.7 nM; for `N=C(N)Nc1cccc(C(=O)NCC(=O)NC(CC(=O)O)c2ccc3ccccc3c2)c1` (racemic) [Example 56, (±)β-[[2-[[[3-[(aminoiminomethyl)amino]phenyl]carbonyl]amino]acetyl]amino]naphthalene-2-propanoic acid, trifluoroacetate salt] it is 6.87 nM; for `N=C(N)Nc1cccc(C(=O)NCC(=O)NC(CC(=O)O)c2ccsc2)c1` (racemic) [Example 59, (±)β-[[2-[[[3-[(aminoiminomethyl)amino]phenyl]carbonyl]amino]acetyl]amino]thiophene-3-propanoic acid, trifluoroacetate salt] it is 24.3 nM.

Consider `N=C(N)Nc1cccc(C(=O)NCC(=O)NC(CC(=O)O)c2cccs2)c1` (racemic) [Example 61, (±)β-[[2-[[[3-[(aminoiminomethyl)amino]phenyl]carbonyl]amino]acetyl]amino]thiophene-2-propanoic acid, trifluoroacetate salt], for which the half-inhibitory concentration (IC50) was determined as 228 nM. The same measure, in the same setting: the figure for `Cc1ccc(SCCC(CC(=O)O)NC(=O)CNC(=O)c2cccc(NC(=N)N)c2)cc1` (racemic) [Example 66, (±)3-[[2-[[[3-[(aminoiminomethyl)amino]phenyl]carbonyl]amino]acetyl]amino]-5-[(4-methylphenyl)thio]pentanoic acid, trifluoroacetate salt] is 2.51 nM; for `Cc1ccc(S(=O)(=O)CCC(CC(=O)O)NC(=O)CNC(=O)c2cccc(NC(=N)N)c2)cc1` (racemic) [Example 67, (±)3-[[2-[[[3-[(aminoiminomethyl)amino]phenyl]carbonyl]amino]acetyl]amino]-5-[(4-methylphenyl)sulfonyl]pentanoic acid, trifluoroacetate salt] it is 4.08 nM. Still for that read-out and setting: as for `Cc1ccc(C(=O)NCC(=O)NC(CC(=O)O)c2cccnc2)cc1NC(=N)N` (racemic) [Example 83, (±)β-[[2-[[[3-[(aminoiminomethyl)amino]-4-methylphenyl]carbonyl]amino]acetyl]amino]pyridine-3-propanoic acid, bis(trifluoroacetate)salt], the figure is 11 nM; as for `Cc1ccc(O)c(C(CC(=O)O)NC(=O)CNC(=O)c2cccc(NC(=N)N)c2)c1` (racemic) [Example 88, (±)β-[[2-[[[3-[(aminoiminomethyl)amino]phenyl]carbonyl]amino]acetyl]amino]-2-hydroxy-5-methylbenzenepropanoic acid, trifluoroacetate salt], 52.3 nM.

As for `O=C(O)CC(NC(=O)CNC(=O)c1cccc(NC2=NCCC2)c1)c1cccnc1` (stereo not drawn) [Example 17, β-[[2-[[[3-[(3,4-dihydro-2H-pyrrol-5-yl)amino]phenyl]carbonyl]amino]acetyl]amino]pyridine-3-propanoic acid, bis(trifluoroacetate)salt], the IC50 stood at 3.64 nM. Still for that read-out and setting: the figure for `C#C[C@H](CC(=O)O)NC(=O)CNC(=O)c1cccc(NC2=NCCCCC2)c1` [Example 30, βS-[[2-[[[3-[(3,4,5,6-tetrahydro-2H-azepin-7-yl)amino]phenyl]carbonyl]amino]acetyl]amino]-4-pentynoic acid, trifluoroacetate salt] is 320 nM.

The same assay, now with this note: hydrochloride salt; read-out: M21 Melanoma Cells IC50.
Consider `C#C[C@@H](CC(=O)O)NC(=O)CNC(=O)c1cccc(NC(=N)N)c1` [Example 43, 3R-[[2-[[[(3-[(aminoiminomethyl)amino]phenyl]carbonyl]amino]acetyl]amino]-4-pentynoic acid, hydrochloride salt], for which the IC50 came to 188 nM.

The values are drawn from patent US6831199B1, “Pyrimidine compounds and derivatives thereof” (G. D. Searle & Co., priority 1995, dated 2004).
